Test results from the NIST ThermoML archive (doi:10.1021/je0302295).
Numbers after ± are expanded uncertainties.

Legend:
[1] = activity coefficient (dimensionless); of the first substance listed, at infinite dilution; xn = mol fraction of the nth substance listed; conditions: Liquid, Static method, x1 = 0
[2] = 293.15 K, 101.33 kPa, Liquid
[3] = refractive index (Na D-line) (dimensionless); conditions: 293.15 K; 101.33 kPa; Liquid; Standard Abbe refractometry

Compound	activity coefficient ([1]; 303.15 K)	activity coefficient ([1]; 313.15 K)	activity coefficient ([1]; 323.15 K)	activity coefficient ([1]; 333.15 K)	activity coefficient ([1]; 343.15 K)	mass density [2]	refractive index [3]	mass density ([2]; Vibrating tube method)
CCCCO [butan-1-ol] + CCCCCCC	31.3 ± 3	24.5 ± 1	19.3 ± 1	14.6 ± 0.8	11.6 ± 0.4	–	–	–
CCCCO [butan-1-ol]	–	–	–	–	–	809.68 ± 0.29 kg/m3	1.3992 ± 0.0007	–
CCCCO [butan-1-ol] + CCCCCCCC	32.1 ± 1.6	23.9 ± 0.8	18.4 ± 0.4	14.5 ± 0.4	11.2 ± 0.8	–	–	–
CCCCCCC [heptane]	–	–	–	–	–	–	1.3876 ± 0.0007	683.79 ± 0.21 kg/m3
CCCCCCCC [octane]	–	–	–	–	–	–	1.3973 ± 0.0007	702.76 ± 0.2 kg/m3

Results, then the compound that gave them:

activity coefficient ([1]; 303.15 K)	activity coefficient ([1]; 313.15 K)	activity coefficient ([1]; 323.15 K)	activity coefficient ([1]; 333.15 K)	activity coefficient ([1]; 343.15 K)	mass density [2]	refractive index [3]	mass density ([2]; Vibrating tube method)	Compound
36.2 ± 1.1	27.2 ± 0.7	21.2 ± 1	15.8 ± 0.4	12.5 ± 0.2	–	–	–	CCCO [propan-1-ol] + CCCCCCC
–	–	–	–	–	803.55 ± 0.29 kg/m3	1.3855 ± 0.0007	–	CCCO [propan-1-ol]
34.2 ± 1.8	26.5 ± 1.4	20.5 ± 0.5	16.2 ± 0.3	12.9 ± 0.2	–	–	–	CCCO [propan-1-ol] + CCCCCCCC
